Measured values taken from patent publication US10208074B2, “Pyrazole compounds and method for making and using the compounds” (Rigel Pharmaceuticals, Inc., priority 2015, dated 2019).
Structures can show the parent of a compound that is named as a salt. Where two headings read alike, the source gives them in different places.

Legend:
[1] = tested on: IL-23 (p19/p40); assay: IL23-p19 ELISA, Dendritic, LPS (compound screening using DC cells); assay type: cell-based, Human; conditions: PBMC-derived DC cells, IFNγ primed, LPS 1 μg/ml, 18 hours, 10 pt, read-out: IL23-p19 ELISA, Dendritic, LPS, 10 pt, EC50
Description: Compound Screening Using DC Cells
Human PBMC cells (400 million) obtained from the vendor were transferred into a T-175 flask containing 15 ml RPMI media (10% FBS) and incubate for 2 hours at 37° C. After 2 hours, the media including floating cells was aspirated out carefully and 12 ml of fresh RPMI media (10% FBS) containing GMCSF (100 ng/ml) and IL4 (20 ng/ml) was added, and the flask was kept in a 37° C. incubator for 7 days.
After 3 days, fresh GMCSF (100 ng/ml) and IL4 (20 ng/ml) were added to the flask and the incubation continued. After 7 days, the fully differentiated cells were harvested by spinning down (1200 rpm/5 min) and aspirating the media. The cells were suspended in fresh RPMI media (10% FBS) containing 50 ng/ml IFNγ (1000 U/ml) and then plated (50K/well in 100 μl) onto a white clear bottom 96 well plate and left in a 37° C. incubator for 24 hours.
After 24 hours incubation, 100 μl of RPMI media was added containing 2× concentrated test compound per well to the above cell-culture media (final concentration becomes 1×) and the plates were pre-incubated for 1 hour at 37° C. before stimulating with LPS.
After 1 hour compound pre-incubation, 10 piper well of 20× concentrated LPS solution in RPMI media was added to give a final concentration of 1 μg/ml. The mixture was shaken and incubated the plates at 37° C. for an additional 18 hours.
155 μl of the supernatant was harvested from each well carefully (without the tip touching the bottom of the well) and to the remaining 50 μl/well of the cell culture plate was added 50 μl of Cell Titer Glo reagent. The mixture was incubated for 1-2 minutes on a shaker and the plate was read for luminescence intensity to determine the compound cytotoxicity. The cell culture supernatant collected above was used to carry out IL23 ELISA (65 μl -Supernatant) and IL10 ELISA (90 μl—Supernatant) as described below.
Human IL-23 (p19/p40) ELISA Protocol (e-Biosciences)
To 10.5 ml PBS add 50 μl of anti-IL23 (p19) was added capture antibody (2.5 μg/ml). The mixture was mixed well and 100 μl of the coating solution was added to each well of the 96 well white plates from Pierce. The wells were covered and incubated overnight at 4° C.
The anti-IL23 (p19)-antibody-coated plates were washed 2× using TBST (use plate washer) and blocked using 200 μl of 0.5% Casein for 1.5-2 hours at room temperature with shaking.
The plates were washed 2× using TBST and the supernatant was transferred (65 μl/well) to the above pre-blocked/IL23(p19)-antibody-coated 96 well plate, and incubated at room temperature for 1.5 hours with shaking.
The plates were washed 4× using TBST (plate washer) and 100 μl/well detection antibody solution prepared from 2 μl of biotin labeled anti-IL-12 (p40/p70) antibody in 11 ml 1% BSA/PBS solution (1-5000 dilution) was added. The plates were incubated for 1 hour with shaking at Room temperature.
Again, the plates were washed 4× with TBST and 100 μl of HRP labeled Streptavidin (R&D Systems) solution (10 μl/10 ml 1% BSA solution) was added, and the plates were incubated at room temperature for another 45 minutes with shaking.
After 45 minutes, the plates were washed with TBST 4× and 100 ul/well Super Signal ELISA Pico Chemiluminescent Substrate from Pierce (3.5 ml A+3.5 ml B+3.5 ml MQ water) was added. The plates were shaken for 1-2 minutes then read on a plate reader.

[2] = tested on: IL-23p19; assay: LPS induced IL23p19 in THP-1 cells (with IFNγ primed) assay; assay type: cell-based, Human; conditions: THP-1 cells, IFNγ primed, LPS 1 ug/mL, 18 hours, 10 pt, read-out: IL23-p19 ELISA, THP1-IFNy, LPS, 10 pt EC50
In short: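 Readout is secreted IL-23p19, quantified by chemiluminescent sandwich ELISA after 18 h LPS (1 ug/mL) stimulation of THP-1 cells that had been IFNγ-primed (50 ng/mL, ~18 h) and given compound 1 h beforehand at 37 °C. EC50 derived by curve fit; cytotoxicity tracked with Cell Titer Glo.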

| SMILES | EC50 ([1]; Homo sapiens, 18 h) [nM] | EC50 ([2]; Homo sapiens, THP-1, 18 h) [nM] | also measured |
| --- | --- | --- | --- |
| CCO[C@H]1C[C@@H](n2cc(NC(=O)c3csc(-c4cnn(COP(=O)(O)O)c4)n3)c(-c3ccccn3)n2)C1 [II-77, (4-(4-((1-((1,3-cis)-3-ethoxycyclobutyl)-3-(pyridin-2-yl)-1H-pyrazol-4-yl)carbamoyl)thiazol-2-yl)-1H-pyrazol-1-yl)methyl phosphate bis-potassium salt] |  |  | EC50 ([1]; phosphate bis-potassium salt): 146 nM; EC50 ([2]; phosphate bis-potassium salt): 147 nM |
| O=C(Nc1cn([C@H]2C[C@H](OCC(F)(F)F)C2)nc1-c1ncccc1F)c1csc(-c2cn[nH]c2)n1 [II-167, N-(3-(3-fluoropyridin-2-yl)-1-((trans)-3-(2,2,2-trifluoroethoxy)cyclobutyl)-1H-pyrazol-4-yl)-2-(1H-pyrazol-4-yl)thiazole-4-carboxamide] | 96.2 | 94.9 |  |
| O=C(Nc1cn(C2COC2)nc1-c1ccccn1)c1csc(-c2cn[nH]c2)n1 [II-34, N-(1-(oxetan-3-yl)-3-(pyridin-2-yl)-1H-pyrazol-4-yl)-2-(1H-pyrazol-4-yl)thiazole-4-carboxamide] | 55.7 | 86.1 |  |
| CCOCCn1cc(NC(=O)c2csc(-c3c(C)n[nH]c3C)n2)c(-c2ccccn2)n1 [II-23, 2-(3,5-dimethyl-1H-pyrazol-4-yl)-N-(1-(2-ethoxyethyl)-3-(pyridin-2-yl)-1H-pyrazol-4-yl)thiazole-4-carboxamide, formic acid salt] | 16300 | 4760 |  |
| O=C(Nc1cn([C@H]2C[C@@H](O)C2)nc1-c1ccccn1)c1ccc(-c2cn[nH]c2)o1 [Compound I-32, N-(1-((1,3-cis)-3-hydroxycyclobutyl)-3-(pyridin-2-yl)-1H-pyrazol-4-yl)-5-(1H-pyrazol-4-yl)furan-2-carboxamide] | 83 | 28.8 |  |
| CCO[C@H]1C[C@@H](n2cc(NC(=O)c3csc(-c4cn[nH]c4)n3)c(-c3nnco3)n2)C1 [II-74, N-(1-((1s,3s)-3-ethoxycyclobutyl)-3-(1,3,4-oxadiazol-2-yl)-1H-pyrazol-4-yl)-2-(1H-pyrazol-4-yl)thiazole-4-carboxamide] | 405 | 401 |  |
| CCO[C@H]1C[C@@H](n2cc(NC(=O)c3coc(-c4cn[nH]c4)n3)c(-c3ccccn3)n2)C1 [III-4, N-(1-((1s,3s)-3-ethoxycyclobutyl)-3-(pyridin-2-yl)-1H-pyrazol-4-yl)-2-(1H-pyrazol-4-yl)oxazole-4-carboxamide] | 36.9 | 43.4 |  |
| CC(C)(C)NC(=O)N1CC(n2cc(NC(=O)c3ccc(-c4cn[nH]c4)o3)c(-c3ccccn3)n2)C1 [Compound I-84, 3-[4-{5-(1H-Pyrazol-4-yl)furan-2-carboxamido}-3-(pyridine-2-yl)-1H-pyrazol-1-yl]-N-(tert-butyl)azetidine-1-carboxamide, free base] | 97.7 | 42.3 |  |
| CC(C)(C)OC(=O)N1CC(n2cc(NC(=O)c3csc(-c4cn[nH]c4)n3)c(-c3ccccn3)n2)C1 [II-54] | 189 | 171 |  |
| CCO[C@H]1C[C@@H](n2cc(NC(=O)c3ccc(-c4cn[nH]c4)o3)c(-c3cc(F)ccn3)n2)C1 [Compound I-148, N-(1-((1s,3s)-3-ethoxycyclobutyl)-3-(4-fluoropyridin-2-yl)-1H-pyrazol-4-yl)-5-(1H-pyrazol-4-yl)furan-2-carboxamide formate] | 110 | 173 |  |
| CCO[C@H]1C[C@@H](n2cc(NC(=O)c3csc(-c4c[nH]nc4C)n3)c(-c3cccc(C(F)(F)F)n3)n2)C1 [II-99, N-(1-((1,3-cis)-3-ethoxycyclobutyl)-3-(6-(trifluoromethyl)pyridin-2-yl)-1H-pyrazol-4-yl)-2-(3-methyl-1H-pyrazol-4-yl)thiazole-4-carboxamide] | 989 | 420 |  |
| O=C(Nc1cn([C@H]2CC[C@@H](O)CC2)nc1-c1ccccn1)c1ccc(-c2cn[nH]c2)o1 [Compound I-124, N-(1-((1s,4s)-4-hydroxycyclohexyl)-3-(pyridin-2-yl)-1H-pyrazol-4-yl)-5-(1H-pyrazol-4-yl)furan-2-carboxamide formate] | 101 | 53.4 |  |
| CN1CCN(CCn2cc(NC(=O)c3csc(-c4cn[nH]c4)n3)c(-c3ccccn3)n2)CC1 [II-61, N-(1-(2-(4-methylpiperazin-1-yl)ethyl)-3-(pyridin-2-yl)-1H-pyrazol-4-yl)-2-(1H-pyrazol-4-yl)thiazole-4-carboxamide] | 50.4 | 22.5 |  |
| CCO[C@H]1CC[C@H](n2cc(NC(=O)c3ccc(-c4cn[nH]c4)o3)c(-c3ccccn3)n2)CC1 [Compound I-130, N-(1-((1r,4r)-4-ethoxycyclohexyl)-3-(pyridin-2-yl)-1H-pyrazol-4-yl)-5-(1H-pyrazol-4-yl)furan-2-carboxamide formate] | 23 | 48.3 |  |
| COCCn1cc(NC(=O)c2ccc(-c3c[nH]nc3C)o2)c(-c2ccccn2)n1 [Compound I-9, N-(1-(2-methoxyethyl)-3-(pyridin-2-yl)-1H-pyrazol-4-yl)-5-(3-methyl-1H-pyrazol-4-yl)furan-2-carboxamide] |  |  | EC50 [1]: 309 nM; EC50 [2]: 281 nM |
| COc1ccc(-c2nn(C)cc2NC(=O)c2ccc(-c3cn[nH]c3)o2)nc1 [Compound I-109, N-(3-(5-methoxypyridin-2-yl)-1-methyl-1H-pyrazol-4-yl)-5-(1H-pyrazol-4-yl)furan-2-carboxamide] | 22.1 | 104 |  |
| COc1ccc(-c2nn(C)cc2NC(=O)c2csc(-c3cn[nH]c3)n2)nc1 [II-58, N-(3-(5-methoxypyridin-2-yl)-1-methyl-1H-pyrazol-4-yl)-2-(1H-pyrazol-4-yl)thiazole-4-carboxamide] | 112 | 130 |  |
| Cn1cc(-c2ccc(C(=O)Nc3cn(C)nc3-c3ccccn3)o2)cn1 [Compound I-69, 5-(1-Methyl-1H-pyrazol-4-yl)-N-{1-methyl-3-(pyridine-2-yl)-1H-pyrazol-4-yl}furan-2-carboxamide, formate salt] | 325 | 1250 |  |
| O=C(Nc1cn(C2CCOCC2)nc1-c1nccs1)c1ccc(-c2cn[nH]c2)o1 [Compound I-60, 5-(1H-pyrazol-4-yl)-N-(1-(tetrahydro-2H-pyran-4-yl)-3-(thiazol-2-yl)-1H-pyrazol-4-yl)furan-2-carboxamide formate] |  |  | EC50 ([1]; formate): 33.8 nM; EC50 ([2]; formate): 174 nM |
| O=C(Nc1cn(C2CCOCC2)nc1-c1ccccn1)c1csc(-c2cn[nH]c2)n1 [II-10, 2-(1H-pyrazol-4-yl)-N-(3-(pyridin-2-yl)-1-(tetrahydro-2H-pyran-4-yl)-1H-pyrazol-4-yl)thiazole-4-carboxamide] | 10.5 | 22.6 |  |
